Experimental data as given in article PMC6844378, “Structure activity relationship studies on Amb639752: toward the identification of a common pharmacophoric structure for DGKα inhibitors” (Journal of Enzyme Inhibition and Medicinal Chemistry, 2019).
Like-named read-outs stand apart in the source and are kept apart here.

Experiments:
serotonin receptors [1] = experiment: Superoxide anion production: serotonin effect on PMA-induced oxidative burst in monocytes; type: cell-based; conditions: drugs 10 µM, 1 h; serotonin 1 µM; PMA 1 µM 30 min; human monocytes
Method: Human monocytes were isolated from healthy anonymous human buffy coats (provided by the Transfusion Service of Ospedale Maggiore della Carità, Novara, Italy) by the standard technique of dextran sedimentation and Histopaque (density = 1.077 g cm^3, Sigma-Aldrich, Milano, Italy) gradient centrifugation (400×g, 30 min, room temperature) and recovered by fine suction at the interface, as described previously. Purified monocytes populations were obtained by adhesion (90 min, 37 °C, 5% CO2) in serum-free RPMI 1640 medium (Sigma-Aldrich, Milano, Italy) supplemented with 2 mM glutamine and antibiotics. Cell viability (trypan blue dye exclusion) was usually >98%.
All the experiments were performed in triplicate using cells isolated from each single donor.
Monocytes (250,000 cells/well) were treated for 1 h with the indicated drugs (10 µM) with or without serotonin (1 µM). Then, cells were stimulated with phorbol 12-myristate 13-acetate (PMA; Sigma-Aldrich, Milano, Italy) 1 µM for 30 min. PMA is a well-known stimulus that induces a strong and significant respiratory burst via PKC activation. Superoxide anion production was then evaluated by the superoxide dismutase (SOD)-sensitive cytochrome C (CytC) reduction assay and expressed as nmoles CytC reduced/10^6 cells/30 min, using an extinction coefficient of 21.1 mM. To avoid interference with spectrophotometrical recordings, cells were incubated with RPMI 1640 without phenol red, antibiotics, and FBS.
To this purpose, we measured the effect of serotonin on PMA-induced oxidative burst in human monocytes. As previously shown, 1 µM serotonin reverses the oxidative burst to control values.
Figure 8. […] Results are expressed as n moles of reduced cytochrome C/10^6 cells. Data are means ± SEM of 10 independent experiments performed in triplicate.

serotonin receptors [2] = conditions: read-out: IC50 as serotonin antagonist; cited from earlier work
dopaminergic receptors = target: dopaminergic receptors; set-up: method as in PMID 2860558; conditions: cited from earlier work
[3] = set-up: method as in PMID 27974147; conditions: in human; cited from earlier work
DGKα [4] = target: T1, DGKα (Homo sapiens, UniProt P23743); set-up: expressed in transfected cells; host or cells: MDCK cells (vector-infected, doxycycline-induced), crude homogenate; method as in PMID 30611057; conditions: in our assay system; cited from earlier work
T1 sequence (P23743 whole entry): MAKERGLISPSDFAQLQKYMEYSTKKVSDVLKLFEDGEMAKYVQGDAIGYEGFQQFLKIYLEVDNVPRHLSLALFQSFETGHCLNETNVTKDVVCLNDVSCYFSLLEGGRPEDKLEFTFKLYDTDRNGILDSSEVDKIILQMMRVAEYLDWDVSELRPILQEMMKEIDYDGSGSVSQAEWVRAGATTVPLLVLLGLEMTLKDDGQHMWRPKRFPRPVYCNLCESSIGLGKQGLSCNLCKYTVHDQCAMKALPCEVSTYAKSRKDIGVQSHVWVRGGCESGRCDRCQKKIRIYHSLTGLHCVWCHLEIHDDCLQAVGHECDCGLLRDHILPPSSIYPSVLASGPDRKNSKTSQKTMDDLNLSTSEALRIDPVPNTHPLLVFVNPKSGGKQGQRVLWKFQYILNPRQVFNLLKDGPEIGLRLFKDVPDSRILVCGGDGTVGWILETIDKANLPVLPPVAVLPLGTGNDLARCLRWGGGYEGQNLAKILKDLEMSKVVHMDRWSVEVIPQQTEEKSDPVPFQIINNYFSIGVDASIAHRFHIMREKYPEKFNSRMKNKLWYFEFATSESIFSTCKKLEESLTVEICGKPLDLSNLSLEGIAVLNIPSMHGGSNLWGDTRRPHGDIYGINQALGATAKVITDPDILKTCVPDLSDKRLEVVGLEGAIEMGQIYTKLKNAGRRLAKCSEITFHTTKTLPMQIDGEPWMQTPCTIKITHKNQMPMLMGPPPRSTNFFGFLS

5HT2A = system: 5HT2A; set-up: method as in PMID 27974147; conditions: antagonistic activity on 5-HT2 receptors; cited from earlier work
[5] = set-up: method as in PMID 26420856; conditions: mice, rapid clearance; cited from earlier work
DGK isoforms = system: DGK isoforms; set-up: method as in PMID 10718334, PMID 23949095; conditions: cited from earlier work
[6] = system: T cells from XLP-1 patients; set-up: method as in PMID 26764158; conditions: pre-treatment with inhibitor; cited from earlier work
XLP-1 model = conditions: cited from earlier work
DGKα [7] = target: T1, DGKα; experiment: DGK assay on OST-DGKα enriched MDCK homogenates; type: biochemical; set-up: expressed in transfected cells; host or cells: MDCK cells (vector-infected, doxycycline-induced), crude homogenate; conditions: for remaining activity at 100 µM: percentage of residual DGKα activity compared to DMSO control, OST-DGKα overexpressing cell lysates, saturating DAG and ATP, read-out: Residue activity at 100 µM
Method: Madin-Darby canine kidney (MDCK) cells stably expressing One Strep Tag DGKα (OST-DGKα) were prepared by infecting MDCK cells with a vector expressing an inducible OST tagged DGKα constructs. MDCK cells infected with empty vector were used as controls. MDCK cells were cultured in MEM (minimal essential medium) with 5% FBS (foetal bovine serum) and 1% antibiotic–antimycotic solution. Routinely, cells were splitted every 3–4 days with trypsin–EDTA 0.25% in standard 100 mm dishes.
Large cultures of MDCK cells for enzyme preparation were done by plating 5 × 10^6 cells in 245 mm^2 dishes. Once they reached nearly 70% confluence, cells were treated with doxycycline (1 µg/mL, two days). […] Cells were collected with a rubber scraper, homogenised by passing them through a 29 G-needle syringe 20 times and stored in aliquots at –80 °C. Presence of OST-DGKα was confirmed by western blotting and enzyme assay, transduced DGKα has an activity >100 folds the endogenous DGK.
Essentionally, the same procedure was followed as reported previously in Velnati et al.[9] In brief, DGK activity was assayed by measuring initial velocities (5 min at 27 °C) in presence of saturating substrate concentrations. Reaction conditions: 0.9 µg/µL 1,2-dioleoyl-sn-glycerol, 5 mM ATP, 0.01 µCi/µL [γ^32P]-ATP, 1 mM sodium orthovanadate, 10 mM MgCl2, 1.2 mM EGTA in 7.5 mM Hepes pH 8[12]. Reaction mixture is assembled mixing enzyme (24.5 µL of homogenate), 100× inhibitor or DMSO (0.5 µL), 5× ATP solution (10 µL of 25 mM ATP, 0.05 µCi/µL [γ^32P]-ATP (Perkin-Elmer, Milan, Italy), 5 mM sodium orthovanadate, 50 mM MgCl2), and 3.3× DAG solution (15 µL of 3 µg/µL 1,2-dioleoyl-sn-glycerol resuspended by sonication in 4 mM EGTA in 25 mM Hepes pH 8). The reaction was stopped after 5 min by adding 200 µL of freshly prepared 1 M HCl and lipid was extracted by adding 200 µL of CH3OH:CHCl3 1:1 solution and vortexing for 1 min. The two phases were separated by centrifugation (12,000 RCF for 2 min). Twenty-five microlitres of the lower organic phase was spotted in small drops on silica TLC plates. TLC was run 10 cm and dried before radioactive signals were detected by GS-250 molecular imager and was quantified by quantity one (Bio-Rad, Hercules, CA) software assuring the absence of saturated spots.
Percentage residual activity was calculated as follows: (OST-DGKα homogenate with inhibitor – vector homogenate)/(OST-DGKα homogenate with DMSO – vector homogenate)×100.
Data for the screen on OST-DGKα homogenates are the mean of duplicates. The compounds showing inhibitory activity in this assay were tested >4 times and the mean ± SEM is reported.
To calculate IC50 values of active inhibitors, the inhibitor activity was measured at least three times at 0.1, 1.0, 10.0, and 100.0 µM concentration. Data were analysed using [inhibitor] vs. normalised response parameters with least square [ordinary] curve fitting method in GraphPad PRISM 8.0 software (GraphPad Software, La Jolla, CA) mentioning 95% confidence interval and IC50 values always greater than 0.0. […] In all the experiments, the data were normalised with the controls.
Each inhibitor was tested in duplicate at least once, and DGKα activity was expressed as percentage of residual DGKα activity compared to DMSO control in the same assay. Assay uses OST-DGKα overexpressing cell lysates in presence of saturating exogenous DAG and ATP. We considered R59022 (commercially available) and the lead compound Amb63975230 as our reference molecules.
To measure the inhibitor potency, we determined the IC50 values for the compounds that resulted active when tested at 100 µM by measuring the residual OST-DGKα activity over a dose range of inhibitor concentrations (0.1 µM, 1.0 µM, 10.0 µM, and 100.0 µM).

SAP-deficient T cells = experiment: RICD assay in SAP silenced T cells; type: cell-based, human; conditions: 10 µM, 30 min pre-treatment; OKT3 10 ng/mL, 24 h; SAP siRNA
Method: PBL were isolated from healthy anonymous human donors by Ficoll-Paque PLUS (GE Healthcare, Chicago, IL) density gradient centrifugation, washed, and resuspended at 2 × 10^6 cell/mL in RPMI-GlutaMAX containing 10% heat inactivated FCS, 2 mM glutamine, and 100 U/mL of penicillin and streptomycin. T cells were activated with 1 µg/mL anti-CD3 (UCHT1) and anti-CD28 (clone CD28.2) antibodies. After three days, activated T cells were washed and cultured in medium additionated of 100 IU/mL rhIL-2 (Peprotech, Rocky Hill, NJ) at 1.2 × 10^6 cells/mL for ≥7 days by changing media for every 2–3 days.
Activated human PBLs were transfected with 200 pmol of siRNA oligonucleotides specific for the target protein (Stealth Select siRNA; Life Technologies, Carlsbad, CA) or a non-specific control oligo (Life Technologies, Carlsbad, CA). Transient transfections were performed using Amaxa nucleofector kits for human T cells (Lonza, Basel, Switzerland) and the Amaxa Nucleofector II or 4D systems (programmes T-20 or EI-115). Cells were cultured in IL-2 (100 IU/mL) for four days to allow target gene knockdown. Knockdown efficiency was periodically evaluated by Western blotting.
To test restimulation induced cell death, activated T cells (10^5 cells/well) were plated in triplicate in 96-well round-bottom plate and treated with anti-CD3 (clone OKT3) (10 ng/mL) in RPMI-GlutaMAX supplemented with 100 IU/mL rhIL-2 for 24 h. In these assays, inhibitors (10 µM) were added 30 min before the restimulation with OKT3. 24 h after treatment, cells were stained with 20 ng/mL propidium iodide and collected for a constant time of 30 s per sample on Attune Nxt Flow Cytometer (Thermo Fisher Scientific, Waltham, MA). Cell death is expressed as % cell loss and calculated as: % cell loss=(1−(number of viable cells in sample/number of viable cells in control)×100)
Results were expressed as mean ± standard error of the mean (SEM). We always compared controls and SAP silenced lymphocytes from the same donors as there is a large individual variability in RICD sensitivity.
To evaluate inhibitor efficacy in physiological context, we modelled XLP-1 by silencing SAP in primary peripheral blood T lymphocytes (PBLs) and restimulating them with anti-CD3 antibody (OKT3 10 ng/mL, 24 h). We pre-treated the cells with the indicated inhibitors for 30 min at a concentration of 10 µM[8].
Figure 9. DGKα inhibitors partially restores apoptosis in SAP deficient lymphocytes. […] After 4 days, the cells were restimulated with CD3 agonist OKT3 (10 ng/mL) in presence of respective inhibitor. Vehicle (DMSO) was used as control. Twenty-four hours later, the % of cell loss was evaluated by PI staining. Data are the mean ± SEM of nine independent experiments performed in triplicate.

| Structure (SMILES) | effect on serotonin action on PMA-induced oxidative burst (serotonin receptors [1]) | IC50 (serotonin receptors [2]) | IC50 (dopaminergic receptors) | t1/2 [3] | IC50 (DGKα [4]) | IC50 (5HT2A) | t1/2 [5] | DGK isoforms targeted (DGK isoforms) | rescue of defective RICD in T cells from XLP-1 patients [6] | effect in an in vivo model of XLP-1 (XLP-1 model) | inhibition at 100 µM (DGKα [7]; 100 µM) | remaining activity at 100 µM (DGKα [7]; 100 µM) | IC50 (DGKα [7]; residual OST-DGKα activity at 0.1, 1.0, 10.0 and 100.0 µM) | rescue of RICD (apoptosis) in SAP-deficient T cells (SAP-deficient T cells) |
| --- | --- | --- | --- | --- | --- | --- | --- | --- | --- | --- | --- | --- | --- | --- |
| Cc1nc2sccn2c(=O)c1CCN1CCC(=C(c2ccc(F)cc2)c2ccc(F)cc2)CC1 [ritanserin] | impaired serotonin action | 0.0009 µM | 0.069 µM | 40 h | 17 µM |  |  |  |  |  |  |  |  |  |
| Cc1nc2sccn2c(=O)c1CCN1CCC(=C(c2ccccc2)c2ccc(F)cc2)CC1 [Compound R59022] |  |  |  |  |  | 0.0022 µM | ~2 h | type III and V (ε e θ) | rescued | beneficial effects | 73% | 27% | 15.2 ± 5.8 µM |  |
| O=c1c2ccccc2[nH]c(=S)n1CCN1CCC(=C(c2ccc(F)cc2)c2ccc(F)cc2)CC1 [Compound R59949, 3-[2-(4-[bis-(4-fluorophenyl)methylene]-1-piperidinyl)ethyl]-2,3-dihydro-2-thioxo-4(1h)quinazolinone] |  |  |  |  | 11 µM | 0.0092 µM | ~2 h | type I and II (γ, δ e κ) | rescued |  |  | 28% |  |  |
| O=C(c1ccc(F)cc1)C1CCN(CCn2c(=O)[nH]c3ccccc3c2=O)CC1 [ketanserin, reference compound] | impaired serotonin action |  |  |  |  |  |  |  |  |  |  |  |  | inactive |
